Entries after “also recorded” stand apart in the source; their conditions may differ.
Key:
[1] = test system: OR2A4/7; experiment: Intracellular Ca2+ signals in human melanocytes; type: cell-based
[2] = test system: OR2A4/7; conditions: screening approach, Tsai et al. 2017; cited from earlier work
[3] = test system: microdissected human scalp HFs; experiment: Organ culture of microdissected human HFs with CHS: OR2A4/7 expression and HF stem cell/progeny number by quantitative (immuno)histomorphometry; type: cell-based; conditions: 50 μM CHS vs vehicle, 6 days
Experimental: (§1) Temporal and occipital human scalp skin was obtained from healthy donors (38-69 years old) undergoing routine face-lift surgery. Scalp skin samples were processed for HF microdissection (Edelkamp J, Gherardini J, Bertolini M, Methods to study human hair follicle growth ex vivo: human microdissected hair follicle and human full thickness skin organ culture, Methods Mol. Biol. 2154 (2020) 105-119).
Microdissected human scalp HFs were cultured at 37° C. with 5% CO2 in a minimal media of William's E media (WEM, Gibco, Life Technologies) supplemented with 2 mM of L-glutamine (Gibco), 10 ng/ml hydrocortisone (Sigma-Aldrich), 10 μg/ml insulin (Sigma-Aldrich), and 1% penicillin/streptomycin mix (Gibco) 25,26,62. After microdissection, the HFs were first incubated in WEM for 24 h for re-equilibration.
HFs after quality control (fully pigmented and presence in anagen VI phase) were randomly allocated to the different experimental groups.
After 24 h, WEM mediμm was replaced and HFs were treated with vehicle or 50 μM CHS for 6 days for (immuno) histomorphometry.
OCT-embedded samples were sectioned (6 μm thickness for HF and 7 μm thickness for skin) with a Leica cryostat. Sections obtained from the organ culture were stained using OR2A4/7 and integrin α-6 antibodies. A double-staining, […] wa salso performed. Sections without primary antibody were used as negative control. […]
Staining intensity was evaluated in well-defined reference areas by quantitative (immuno-) histomorphometry (Fischer T W, et al. Differential effects of caffeine on hair shaft elongation, matrix and outer root sheath keratinocyte proliferation, and transforming growth factor-B2/insulin-like growth factor-1-mediated regulation of the hair cycle in male and female human hair follicles in vitro. Br. J. Dermatol. 2014;171:1031-1043. doi: 10.1111/bjd.13114.; Samuelov L, et al. P-cadherin regulates human hair growth and cycling via canonical Wnt signaling and transforming growth factor-62. J. Invest. […]

[4] = test system: microdissected human scalp HFs; experiment: Organ culture of microdissected HFs with CHS: hair cycle staging and hair matrix keratinocyte proliferation (Ki-67/TUNEL, Masson Fontana); type: cell-based; conditions: 50 μM CHS vs vehicle, 6 days
From the text: as §1, with “105-119). […]” for “105-119).”
OCT-embedded samples were sectioned (6 μm thickness for HF and 7 μm thickness for skin) with a Leica cryostat. […] Images were taken using a Keyence fluorescence microscope BZ9100 (Osaka, Japan) maintaining a constant set exposure time throughout imaging for further analysis.
HFs were microscopically evaluated for the hair cycle staging analysis using Masson-Fontana histochemistry and Ki-67/TUNEL immunostainings (Langan EA, et al. Human hair follicle organ culture: theory, application and perpsectives. Exp. Dermatol. 2015;24:903-911. doi: 10.1111/exd.12836; Kloepper JE, et al. Methods in hair research: how to objectively distinguish between anagen and catagen in human hair follicle organ culture. Exp. Dermatol. 2010;19:305-312. doi: 10.1111/j.1600-0625.2009.00939.x;). […]

Structure (SMILES): O=C(OC1CCCCC1)c1ccccc1O [CHS, cyclohexyl salicylate]
- intracellular Ca2+ signals [1]: elicited transient intracellular Ca2+ signals
- agonism at OR2A4/7 [2]: specific agonist
- OR2A4/7 protein expression in the HF bulb ([3]; ex vivo HFs (FIG. 2)): receptor downregulation
- K15+ stem cells in the basal layer of the bulge ([3]; ex vivo HFs (FIG. 3a)): did not seem to impact; also recorded: No differences
- CD34+ cells in the suprabulbar ORS ([3]; ex vivo HFs (FIG. 3b)): significantly increased
- HFs in anagen (hair cycle staging) ([4]; ex vivo HFs (FIG. 4a)): prolongs anagen; also recorded: increase
- hair matrix keratinocyte proliferation (Ki-67) ([4]; ex vivo HFs (FIG. 4b)): induces hair matrix keratinocyte proliferation
